Here are results for one molecule from patent US10420758B2, “Indolinyl-sulfonamide inhibitors of tankyrase and methods of use thereof” (The Board of Regents of the University of Texas System, priority 2015, dated 2019).

For the assay, the target named is T1, telomerase (Homo sapiens, UniProt O14746).
T1 construct: endogenous in cells; host or cells: HeLa
The assay can be described thus: Digital droplet telomerase extension (ddTRAP) assay. The settings on record: HeLa cells treated for 24 hrs, FIG. 4F. Format: cell-based. An excerpt: FIGS. 4A-4F show Tnks inhibitors induce telomeric stress in human cells independently of Wnt/β-catenin pathway inhibition. (FIG. 4A) Porcn inhibitors afford a Tnks-independent approach to disrupting Wnt/β-catenin signaling. Chemicals targeting the Wnt acyltransferase Porcn abrogate Wnt palmitoylation which in turn results in loss of activity of the Frizzled (Fzd) family of Wnt receptors. Fzd receptors directly induce activation of the cytoplasmic signaling molecule Dishevelled (Dvl) in a ligand-dependent manner, which in turn results in activation of β-catenin and transcription mediated by the TCF family of DNA binding proteins. […] The appearance of co-localized Terf2 and pH2A.X (an indicator of DNA damage at the telomere ends; Telomere Induced Foci or TIFs) was scored using indirect immunofluorescence in Hela cells (expressing wild-type Apc protein). (FIG. 4C) Quantification of results represented in “B”. Cells with >5 TIFs were scored as positive for telomeric damage (left bars). […]
The ddTRAP assay was performed as previously described (Ludlow, et al., 2014). […] Fluorescence was quantitated using a QX200 droplet reader (Bio-Rad) in the 6-Fam channel. Thresholds for quantitation were determined by comparison to a telomerase negative fibroblast cell line and no cell input negative control samples and untreated Hela cell positive control samples.

T1 sequence (O14746 whole entry): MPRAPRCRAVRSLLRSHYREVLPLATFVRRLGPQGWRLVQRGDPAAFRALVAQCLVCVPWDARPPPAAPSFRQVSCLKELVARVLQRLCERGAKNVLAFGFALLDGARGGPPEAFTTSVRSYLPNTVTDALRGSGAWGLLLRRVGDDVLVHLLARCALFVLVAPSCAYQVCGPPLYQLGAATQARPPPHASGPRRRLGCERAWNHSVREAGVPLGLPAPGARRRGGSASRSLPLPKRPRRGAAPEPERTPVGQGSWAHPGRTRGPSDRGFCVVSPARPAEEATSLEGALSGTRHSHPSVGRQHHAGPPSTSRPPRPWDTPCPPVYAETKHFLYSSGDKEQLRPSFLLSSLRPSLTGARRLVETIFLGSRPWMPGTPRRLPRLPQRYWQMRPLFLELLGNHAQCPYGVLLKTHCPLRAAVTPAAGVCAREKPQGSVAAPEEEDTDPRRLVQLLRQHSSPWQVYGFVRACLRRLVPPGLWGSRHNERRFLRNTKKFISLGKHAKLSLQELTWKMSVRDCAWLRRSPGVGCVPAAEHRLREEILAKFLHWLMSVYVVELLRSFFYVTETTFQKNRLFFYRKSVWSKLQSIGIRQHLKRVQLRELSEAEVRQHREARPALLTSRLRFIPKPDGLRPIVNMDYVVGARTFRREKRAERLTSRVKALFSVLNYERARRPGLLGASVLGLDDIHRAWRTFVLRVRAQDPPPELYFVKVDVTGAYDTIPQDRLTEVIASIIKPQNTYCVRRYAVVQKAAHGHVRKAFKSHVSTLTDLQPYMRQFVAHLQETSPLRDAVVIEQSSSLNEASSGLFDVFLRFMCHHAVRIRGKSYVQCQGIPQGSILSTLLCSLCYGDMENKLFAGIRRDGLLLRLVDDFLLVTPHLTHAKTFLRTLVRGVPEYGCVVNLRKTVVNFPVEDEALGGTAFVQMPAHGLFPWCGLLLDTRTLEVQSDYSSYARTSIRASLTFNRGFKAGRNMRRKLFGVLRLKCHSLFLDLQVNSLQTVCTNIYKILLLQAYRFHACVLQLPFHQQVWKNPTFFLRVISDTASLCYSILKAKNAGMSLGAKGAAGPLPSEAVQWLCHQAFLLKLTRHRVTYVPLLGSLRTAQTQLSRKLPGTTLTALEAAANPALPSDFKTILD
T1 sequence (O60832 whole entry partner): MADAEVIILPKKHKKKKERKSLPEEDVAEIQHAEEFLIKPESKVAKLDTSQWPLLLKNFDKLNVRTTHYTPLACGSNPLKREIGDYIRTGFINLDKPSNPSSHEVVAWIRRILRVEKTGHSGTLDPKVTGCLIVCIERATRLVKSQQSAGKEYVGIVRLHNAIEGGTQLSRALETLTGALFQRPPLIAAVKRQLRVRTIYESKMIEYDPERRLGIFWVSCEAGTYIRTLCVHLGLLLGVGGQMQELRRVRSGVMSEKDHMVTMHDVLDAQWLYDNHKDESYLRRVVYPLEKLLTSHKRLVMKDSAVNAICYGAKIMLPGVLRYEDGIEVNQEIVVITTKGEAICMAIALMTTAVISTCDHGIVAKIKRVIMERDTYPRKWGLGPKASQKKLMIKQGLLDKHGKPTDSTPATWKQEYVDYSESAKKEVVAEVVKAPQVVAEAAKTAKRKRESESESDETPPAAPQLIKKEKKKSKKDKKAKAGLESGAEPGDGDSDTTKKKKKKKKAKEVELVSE
T1 sequence (Q9NPE3 whole entry partner): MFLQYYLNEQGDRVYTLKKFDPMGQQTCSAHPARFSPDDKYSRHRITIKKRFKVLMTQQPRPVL
T1 sequence (Q9NX24 whole entry partner): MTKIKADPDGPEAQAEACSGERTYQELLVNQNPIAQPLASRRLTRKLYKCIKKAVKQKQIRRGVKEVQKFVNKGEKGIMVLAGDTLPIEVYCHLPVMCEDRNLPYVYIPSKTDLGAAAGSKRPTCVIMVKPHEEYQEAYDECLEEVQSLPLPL
T1 sequence (Q9NY12 whole entry partner): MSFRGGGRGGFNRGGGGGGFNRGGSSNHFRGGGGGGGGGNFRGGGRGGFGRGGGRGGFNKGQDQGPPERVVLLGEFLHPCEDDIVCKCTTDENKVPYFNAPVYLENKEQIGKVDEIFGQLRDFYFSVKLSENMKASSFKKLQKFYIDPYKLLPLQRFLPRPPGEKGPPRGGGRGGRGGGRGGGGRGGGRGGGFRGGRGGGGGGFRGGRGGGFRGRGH
T1 sequence (Q9BUR4 whole entry partner): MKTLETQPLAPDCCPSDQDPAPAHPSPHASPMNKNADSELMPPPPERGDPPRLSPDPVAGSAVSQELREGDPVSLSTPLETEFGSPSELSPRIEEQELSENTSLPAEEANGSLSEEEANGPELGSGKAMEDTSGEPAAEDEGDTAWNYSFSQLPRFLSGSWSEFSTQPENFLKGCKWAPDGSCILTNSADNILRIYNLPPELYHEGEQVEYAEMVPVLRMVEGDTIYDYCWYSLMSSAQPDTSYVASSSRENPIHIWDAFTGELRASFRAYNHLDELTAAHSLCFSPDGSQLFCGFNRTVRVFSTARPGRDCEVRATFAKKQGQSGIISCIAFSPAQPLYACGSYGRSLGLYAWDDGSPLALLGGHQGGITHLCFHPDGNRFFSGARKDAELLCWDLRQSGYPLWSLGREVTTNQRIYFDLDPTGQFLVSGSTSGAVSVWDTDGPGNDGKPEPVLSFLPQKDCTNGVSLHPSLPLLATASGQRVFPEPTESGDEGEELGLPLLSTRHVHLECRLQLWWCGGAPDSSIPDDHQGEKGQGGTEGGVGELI

Turning to `O=C(Nc1cccc2cccnc12)c1ccc(N2C(=O)[C@@H]3[C@H](C2=O)[C@@H]2C=C[C@H]3C2)cc1` [IWR-1], the telomerase activity entry is “direct inactivation of telomerase by Tnks inhibitors was ruled out”.
